Measured values published in PubChem BioAssay (NCI).
“And” between values parts separate entries of the source, which are not always exact repeats. Equal values may be shown once.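 1) Cells in 96-well plates. 2) Compound, 48 h, 5 concentrations. 3) Linear interpolation between surrounding doses. 4) Unreached endpoint = highest concentration. Here, GI50 denotes the concentration required for 50% inhibition of growth. TGI: total growth inhibition.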

How the values were obtained:
Experiment in all cases: DTP human tumour cell line panel, 48 h
K-562 leukemia = tested on: K-562 leukemia
SN12C renal = tested on: SN12C renal
NCI-H522 lung = tested on: NCI-H522 lung
OVCAR-5 ovarian = tested on: OVCAR-5 ovarian
NCI/ADR-RES ovarian = tested on: NCI/ADR-RES ovarian
UACC-62 melanoma = tested on: UACC-62 melanoma
HT29 colon = tested on: HT29 colon
OVCAR-3 ovarian = tested on: OVCAR-3 ovarian
MOLT-4 leukemia = tested on: MOLT-4 leukemia
MCF7 breast = tested on: MCF7 breast

| Structure (SMILES) | GI50 (K-562 leukemia) [µM] | GI50 (SN12C renal) [µM] | TGI (SN12C renal) | GI50 (NCI-H522 lung) [µM] | TGI (NCI-H522 lung) | GI50 (OVCAR-5 ovarian) [µM] | TGI (OVCAR-5 ovarian) | TGI (NCI/ADR-RES ovarian) [µM] | GI50 (UACC-62 melanoma) [µM] | TGI (UACC-62 melanoma) | GI50 (HT29 colon) [µM] | TGI (HT29 colon) | GI50 (OVCAR-3 ovarian) [µM] | TGI (OVCAR-3 ovarian) | TGI (MOLT-4 leukemia) [µM] | TGI (K-562 leukemia) [µM] | GI50 (NCI/ADR-RES ovarian) [µM] | GI50 (MCF7 breast) [µM] | TGI (MCF7 breast) [µM] | GI50 (MOLT-4 leukemia) [µM] |
| --- | --- | --- | --- | --- | --- | --- | --- | --- | --- | --- | --- | --- | --- | --- | --- | --- | --- | --- | --- | --- |
| CC(C)(Br)C(=O)C(Br)Br | 2.28 | 6.13 | > 43.1 µM and 11.2 µM | 1.37 | 3.18 µM and 5.16 µM | 5.26 | 30.6 µM and 9.58 µM | 12.6 | 5.85 | 22.5 µM and 10.2 µM | 6.16 | 24 µM and 11.8 µM | 5.76 | 18.6 µM and 10.6 µM | 5.1 |  |  |  |  |  |
| NC(=O)NNC(=O)NC12CC3CC(CC(C3)C1)C2 |  |  | > 100 µM |  | > 100 µM |  | > 100 µM |  |  | > 100 µM |  | > 100 µM |  | > 100 µM | > 100 | > 100 |  |  |  |  |
| N#CC(c1ccccn1)c1nc2ccccc2[nH]1 (stereo unspecified) |  |  | > 100 µM |  | > 100 µM |  | > 100 µM |  |  | > 100 µM |  | > 100 µM |  | > 100 µM | > 100 | > 100 |  |  |  |  |
| O=C(O)/C=C/c1nc2ccccc2c(=O)o1 |  |  | > 100 µM |  | > 100 µM |  |  |  |  | > 100 µM |  | > 100 µM |  | > 100 µM | > 100 | > 100 |  |  |  |  |
| Cc1cc(C)nc(NS(=O)(=O)c2ccc(Nc3c4ccccc4nc4c(C(=O)Nc5ccc(S(=O)(=O)N=C(N)N)cc5)cccc34)cc2)n1 |  |  | > 100 µM |  | > 100 µM |  | > 100 µM |  |  | > 100 µM |  | > 100 µM |  | > 100 µM | > 100 | > 100 |  |  |  |  |
| O=S(=O)(/C=C/C(=C/c1ccccc1)S(=O)(=O)c1ccccc1)c1ccccc1 |  |  | 3.43 µM |  | 2.85 µM |  |  |  |  | 3.85 µM |  | 3.28 µM |  | 3.13 µM | 5.21 | 9.19 |  |  |  |  |
| O=C(CCC1C(=O)NC(=S)NC1=O)c1ccc2ccccc2c1 |  |  | > 100 µM |  | 31.1 µM |  | > 100 µM |  |  | > 100 µM |  | > 100 µM |  | > 100 µM | > 100 | > 100 |  |  |  |  |
| CC1(c2ccccc2Cl)C(C#N)C(=O)NC(=O)C1C#N (stereo unspecified) |  |  | > 100 µM |  | 54 µM |  | > 100 µM |  |  | > 100 µM |  | > 100 µM |  | 46.7 µM | > 100 | > 100 |  |  |  |  |
| CC(C)=CC(=O)N(C)C1C2CN3CCC(O2)C13 (stereo unspecified) |  |  | > 100 µM |  | > 100 µM |  | > 100 µM |  |  | > 100 µM |  | > 100 µM |  | > 100 µM | > 100 | > 100 |  |  |  |  |
| CCN(CC)c1ccc2c(c1)Oc1ccc(N(CC)CC)cc1C21Oc2ccccc2-c2c1c1ccccc1n2CC (stereo unspecified) |  |  | > 100 µM |  | 5.06 µM |  |  |  |  | > 100 µM |  | > 100 µM |  | > 100 µM | > 100 | > 100 |  |  |  |  |
| C(=N/N(Cc1ccccc1)Cc1ccccc1)/c1ccccc1 |  | > 100 | > 100 µM | > 100 | > 100 µM | > 100 | > 100 µM | > 100 | 75 | > 100 µM | 24.7 | > 100 µM | > 100 | > 100 µM |  |  | > 100 | 42.9 | > 100 |  |
| N#CCN1CCn2c1nsc2=S | 48.2 | > 100 | > 100 µM | 64.7 | > 100 µM |  |  |  | > 100 | > 100 µM | > 100 | > 100 µM | > 100 | > 100 µM | > 100 | > 100 |  | 55.3 | > 100 | 5.1 |
| Cc1nc(C(=O)O)c2ccccc2n1 |  |  | > 100 µM |  |  |  | > 100 µM |  |  | > 100 µM |  | > 100 µM |  | > 100 µM | > 100 | > 100 |  |  |  |  |
| C[N+](C)(C)CC1CCCC1=O (stereo unspecified) |  |  | 5.56 µM |  | 0.0171 µM |  | 14.8 µM | 4.05 |  | 5.67 µM |  | 3.34 µM |  | 6.87 µM | 4.4 | > 100 |  |  |  |  |
| C/C(=C\c1cnc(C)s1)[C@@H]1C[C@@H]2O[C@@H]2CCC[C@H](C)[C@H](O)[C@@H](C)C(=O)C(C)(C)[C@@H](O)CC(=O)O1 | < 0.01 | < 0.01 | > 100 µM |  |  | < 0.01 | > 100 µM | > 100 | < 0.01 | > 100 µM | < 0.01 | > 100 µM | < 0.01 | > 100 µM | > 100 | > 100 | 0.0228 | < 0.01 | > 100 | < 0.01 |
| C=CNC(=O)NC(=O)CSc1nnc(-c2ccccc2NC(=O)C(F)(F)F)c(=O)[nH]1 |  |  | > 100 µM |  | > 100 µM |  | > 100 µM |  |  | > 100 µM |  | > 100 µM |  | > 100 µM | > 100 | > 100 |  |  |  |  |
| CC12CCC(=O)N1c1ccc([N+](=O)[O-])cc1N2 (stereo unspecified) |  |  | > 100 µM |  | > 100 µM |  |  |  |  | > 100 µM |  | > 100 µM |  | > 100 µM | > 100 | > 100 |  |  |  |  |
| O=C(c1nc2ccccc2[nH]c1=O)C(O)c1ccccc1 (stereo unspecified) |  |  | > 100 µM |  | > 100 µM |  | > 100 µM |  |  | > 100 µM |  | > 100 µM |  | > 100 µM | > 100 | > 100 |  |  |  |  |
| COc1cc2c(cc1OC)-c1ncc3c(OC)c(OC)c(OC)cc3c1C2 | 10.7 |  |  |  |  | 26.6 | > 100 µM | 45 | 3.84 | 25.6 µM |  |  | 0.529 | 9.91 µM |  | > 100 | 13.4 | 4.14 | 18.7 |  |
| CN(CCNCc1ccccn1)CCNCc1ccccn1 | 3.58 | 4.33 | 17.2 µM |  |  | 2.66 | 8.57 µM | > 100 | 2.18 | 4.74 µM | 2.79 | 7.86 µM | 2.09 | 4.27 µM | > 100 | > 100 | 3.57 | 3.08 | 10.9 | 3.61 |
| CC(=O)OCCOCNC(=S)N/N=C/c1cc(Br)cs1 |  |  | > 100 µM |  | > 100 µM |  | > 100 µM |  |  | > 100 µM |  | > 100 µM |  | > 100 µM | > 100 | > 100 |  |  |  |  |
